The values below come from patent US7919519B2, “S1P receptor modulating compounds and use thereof” (Epix Pharmaceuticals Inc., priority 2005, dated 2011).

The target of the assay is T1, hS1P1 (Homo sapiens, UniProt P21453).
T1 construct: expressed in transfected cells
The assay can be described thus: hS1P1 EC50 (S1P receptor Ca2+ flux protocol, CHO K1 Gqi5 cells). In kind it is cell-based. On the procedure:
S1P receptor activity may also be measured by an S1P receptor (e.g., hS1P1, hS1P3, rS1P1, rS1P3 and parental cell) Ca^2+ Flux protocol as described below:
1. Material • a. FLIPR buffer: 1×HBSS; 10 mM HEPES • b. Cell growth media: • i. human and rat S1P1 and S1P3: F12-Ham's media; 10% FBS (qualified); 1× Pen/Strep/Glu; 300 ug/mL Hygromycin; 400 ug/mL Geneticin • ii. Parental cell: human and rat S1P1 and S1P3: F12-Ham's media; 10% FBS (qualified); 1× Pen/Strep/Glu; 300 ug/mL Hygromycin; • c. Cell seeding media; F12-Ham's media; 10% FBS (Charcoal/dextran stripped); 1× Pen/Strep/Glu; • d. Cell dissociation buffer: Versene from Invitrogen • e. Agonist (S1P) dissolving buffer: 0.4% (w/v) fatty-acid free BSA (Sigma #A8806) in FLIPR buffer • f. FLIPR dye: BD PBX Calcium assay kit; Cat#641077 is composed of Calcium indicator (Cat#850000) and 100×PBX signal enhancer (cat#850001). The 100×PBX signal enhancer is diluted into FLIPR buffer 1:100 and the calcium indicator is then added at 1:1000 ratio. • g. Cell plates (96-well): Greiner Cat#655090 • h. Compound plates (96-well): Costar #3365 • i. S1P stock solution preparation: S1P is purchased from CalBioChem (Catalog #970471; 1 mg vial; custom prep using methanol, & nitrogen gas drying inside glass vial; Storage @ −20° C.). Dissolve 1 vial of S1P into 26.4 ml of agonist dissolving buffer in a 50 ml centrifuge tube; Remove label from bottle of S1P, open and drop entire bottle into tube. Sonicate at 37° for ½ hour. Clear solution of 100 μM will result. This stock solution is aliquoted and stored at −80 C
2. Cell line maintenance • a. V5 tags were added at the N-terminus of hS1P1, hS1P3, rS1P1 and rS1P3. All four genes were transfected into CHO K1 cells which stably express Gqi5. • b. hS1P1 and hS1P3 were established as stable clones and rS1P1 and rS1P3 were sorted by anti V5 tag and established as stable pools after sorting. • c. Parental cell line CHO/K1 Gqi5 is used as the control. • d. All the cells are maintained in cell growth media and splitted twice a week using Versene. • e. All the cell lines are used under passage 30.
3. Assay protocol • a. Cell seeding: Cells are lifted from the flask by Versene and seeded in cell plates at 50K/well in cell seeding media. Cells are grown overnight at 37 degree. • b. Cell loading: Cell seeding media is discarded. Cells are loaded with 50 ul of FLIPR dye at RT for 90 min. Signal is stable for up to 5 h after dye loading. • c. Agonist (S1P) preparation: Frozen stock of S1P is thawed out and sonicated at 37 c for 30 minutes every time before use. The stock is then diluted into FLIPR buffer at proper concentration. • d. Compound preparation: Compounds are dissolved in DMSO. A 3×, 10 point dilution of the compounds are carried out in DMSO. Then the compounds are diluted into assay buffer 133× so that the DMSO concentration is 0.75%. • e. Activity measurement: The fluorescence signal change of the cells upon compound addition is monitored in FLIPRtetra. 25 ul of compound is transferred into the cell plates (50 ul of FLIPR dye; DMSO concentration: 0.25%). Signal is recorded for 90 sec after compound addition. Then 50 ul of 500 nM S1P is added in the cell plate, and signal is recorded for 90 seconds upon addition.
4. Data analysis • a. Peak value is calculated for each compound/S1P addition • b. The peak value of S1P at 200 nM is used as high control (100%), and the peak value of buffer only is used as low control (0%). • c. Data is normalized against high and low controls using the following equation: POC—S=100*(RAW−LO)/(HI−LO) • d. Peak value is plotted against the concentration of compound. • e. Curve is fitted using the 4 parameter fit: Y=(A+(B/(1+((x/C)^D)))) • where: • Y is POC_S (or POC) • X is compound concentration • A is the minimum (EC50min or IC50min) • B is the maximum (EC50max or IC50max) • C is the inflection point (EC50IP or IC50IP) • D is the hill slope (EC50 slope or IC50 slope).
On the technique in general: Calcium flux is commonly read through the fluorescence of an indicator in the cells.

T1 sequence (P21453 whole entry): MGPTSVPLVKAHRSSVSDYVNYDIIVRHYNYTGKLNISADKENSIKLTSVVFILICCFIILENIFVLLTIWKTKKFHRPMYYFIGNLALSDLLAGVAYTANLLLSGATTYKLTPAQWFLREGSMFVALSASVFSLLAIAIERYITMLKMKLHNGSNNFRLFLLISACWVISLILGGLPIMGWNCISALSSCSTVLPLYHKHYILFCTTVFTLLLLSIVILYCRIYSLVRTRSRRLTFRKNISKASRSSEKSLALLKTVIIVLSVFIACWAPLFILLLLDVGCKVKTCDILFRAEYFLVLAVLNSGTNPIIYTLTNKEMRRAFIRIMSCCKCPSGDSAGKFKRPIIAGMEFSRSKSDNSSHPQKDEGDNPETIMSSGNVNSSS

One may read the EC50 as the concentration that produces a half-maximal response. `O=C(O)C1CCN(Cc2ccc(-c3cc4cc(C5CCCCC5)ccc4o3)cc2)CC1` [Compound 7, 1-(4-(5-cyclohexylbenzofuran-2-yl)benzyl)piperidine-4-carboxylic acid]: the EC50 was over 25 µM.

In turn, `CCCCc1ccc2oc(-c3ccc(CN4CCC(C(=O)O)CC4)cc3)cc2c1` [Compound 8, 1-((4-(5-Butylbenzofuran-2-yl)phenyl)methyl)piperidine-4-carboxylic acid] displayed an EC50 of over 25 µM.

On to `O=C(O)C1CCN(Cc2ccc(-c3cc4cc(Cc5ccccc5)ccc4o3)cc2)CC1` [Compound 9, 1-((4-(5-Benzylbenzofuran-2-yl)phenyl)methyl)piperidine-4-carboxylic acid], for which the concentration for a half-maximal effect (EC50) is at least 25 µM.

`O=C(O)C1CN(Cc2ccc(-c3cc4cc(CCc5ccccc5)ccc4o3)cc2)C1` [Compound 11, 1-((4-(5-phenethylbenzofuran-2-yl)phenyl)methyl)azetidine-3-carboxylic acid]: the EC50 was at least 25 µM.

For the molecule `CC(C)Cc1ccc2oc(-c3ccc(CN4CCC(C(=O)O)CC4)cc3)cc2c1` [Compound 13, 1-(4-(5-isobutylbenzofuran-2-yl)benzyl)piperidine-4-carboxylic acid], the EC50 was over 25 µM.

Regarding `CCCCOc1ccc2cc(-c3ccc(CN4CC(C(=O)O)C4)cc3)oc2c1` [Compound 21, 1-((4-(6-Butoxybenzofuran-2-yl)phenyl)methyl)azetidine-3-carboxylic acid], the EC50 stood at 0.2 µM.

`CCCCOc1ccc2oc(-c3ncc(CN4CC(C(=O)O)C4)s3)cc2c1` [Compound 22, 1-((2-(5-butoxybenzofuran-2-yl)thiazol-5-yl)methyl)azetidine-3-carboxylic acid]: the concentration for a half-maximal effect (EC50) is 1.1 µM.

The molecule `CCCCOc1ccc2oc(-c3ccc(CN4CC(C(=O)O)C4)cc3F)cc2c1` [Compound 23, 1-((4-(5-Butoxybenzofuran-2-yl)3-fluorophenyl)methyl)azetidine-3-carboxylic acid] registered an EC50 of 0.52 µM.

Regarding `O=C(O)C1CN(Cc2ccc(-c3cc4cc(-c5cccs5)ccc4o3)cc2)C1` [Compound 28, 1-((4-(5-(thiophen-2-yl)benzofuran-2-yl)phenyl)methyl)azetidine-3-carboxylic acid], the 50% effective concentration (EC50) was at least 25 µM.

Molecule `CC(C)(CC(=O)O)NCc1ccc(-c2cc3cc(Cc4ccccc4)ccc3o2)c(F)c1` [Compound 46, 3-((4-(5-Benzylbenzofuran-2-yl)-3-fluorophenyl)methylamino)-3-methylbutanoic acid] yielded a concentration giving a half-maximal response (EC50) of over 25 µM.
